Assays:
mouse = conditions: Sub-acute repeat dose toxicity; Oral; Feed; dose end: 10 day; group: systemic; systemic / in life observation / body weight / body weight + systemic / in life observation / food consumption / food consumption
rat [1] = conditions: Subchronic oral toxicity in rodents, sprague dawley, Gavage/Intubation, dose end: 91 day, group: systemic
rat [2] = conditions: Sub-acute repeat dose toxicity, sprague dawley, Oral, Feed, dose end: 10 day, group: systemic
rat [3] = conditions: Sub-acute repeat dose toxicity, sprague dawley, Oral, Gavage/Intubation, dose end: 12 day, group: systemic
rat [4] = conditions: Sub-acute repeat dose toxicity, sprague dawley, Oral, Gavage/Intubation, dose end: 14 day, group: systemic
rabbit = conditions: Sub-acute repeat dose toxicity; new zealand white; Oral; Gavage/Intubation; dose end: 4 day; group: systemic; systemic / in life observation / clinical signs / erythema + systemic / in life observation / clinical signs / tachypnea
dog [5] = conditions: Subchronic oral toxicity in nonrodent, beagle, Gavage/Intubation, dose end: 91 day, group: systemic
dog [6] = conditions: Sub-acute repeat dose toxicity, beagle, Oral, Gavage/Intubation, dose end: 15 day, group: systemic
[7] = systemic / organ weight / heart / absolute + systemic / pathology microscopic / thyroid gland / hypertrophy + systemic / in life observation…
[8] = systemic / in life observation / body weight / body weight + systemic / in life observation / clinical signs / drooping eyelids (ptosis) + …
[9] = systemic / in life observation / body weight / body weight + systemic / in life observation / clinical signs / lacrimation or red-colored …
[10] = systemic / in life observation / clinical signs / salivation
[11] = systemic / in life observation / clinical signs / salivation + systemic / in life observation / food consumption / food consumption + …
[12] = systemic / pathology microscopic / blood vessel / arteritis + systemic / in life observation / body weight / body weight
[13] = systemic / clinical chemistry / alkaline phosphatase (alp/alk) / alkaline phosphatase (alp/alk) + systemic / clinical chemistry / bilirubin…
[14] = systemic / in life observation / clinical signs / emesis
[15] = systemic / in life observation / clinical signs / arrhythmia + systemic / in life observation / clinical signs / emesis
[16] = systemic / in life observation / clinical signs / arrhythmia + systemic / in life observation / clinical signs / emesis + systemic / in life…

Which results are given for `CCCOc1ccc(S(=O)(=O)N2CCN(CC)CC2)cc1-c1nc2c(CC)n(Cc3ccccn3)nc2c(=O)[nH]1`?
LEL (mouse): 2000 mg/kg/day; LOAEL (mouse): > 2000 mg/kg/day; NOAEL (mouse): ≥ 2000 mg/kg/day; NEL (rat [1]; systemic / organ weight / heart / absolute + systemic / pathology microscopic / thyroid gland / hypertrophy): 25 mg/kg/day; LEL (rat [1]; [7]): 100 mg/kg/day; LOAEL (rat [1]; [7]): > 400 mg/kg/day; NOAEL (rat [1]; [7]): ≥ 400 mg/kg/day; LOAEL (rat [2]; [8]): > 2000 mg/kg/day; NOAEL (rat [2]; [8]): ≥ 2000 mg/kg/day; LEL (rat [2]; [9]): 500 mg/kg/day; NEL (rat [2]; [9]): < 500 mg/kg/day; LEL (rat [3]; [10]): 100 mg/kg/day; NEL (rat [3]; [10]): < 100 mg/kg/day; LOAEL (rat [3]; [11]): > 400 mg/kg/day; NOAEL (rat [3]; [11]): ≥ 400 mg/kg/day; NEL (rat [4]; systemic / pathology microscopic / blood vessel / arteritis): 45 mg/kg/day; LEL (rat [4]; [12]): 200 mg/kg/day; LOAEL (rat [4]; [12]): > 200 mg/kg/day; NOAEL (rat [4]; [12]): ≥ 200 mg/kg/day; LEL (rabbit): 400 mg/kg/day; LOAEL (rabbit): > 400 mg/kg/day; NEL (rabbit): < 400 mg/kg/day; NOAEL (rabbit): ≥ 400 mg/kg/day; LOAEL (dog [5]; [13]): > 100 mg/kg/day; NOAEL (dog [5]; [13]): ≥ 100 mg/kg/day; LEL (dog [5]; [14]): 10 mg/kg/day; NEL (dog [5]; [14]): < 10 mg/kg/day; LEL (dog [6]; [15]): 15 mg/kg/day; NEL (dog [6]; [15]): < 15 mg/kg/day; LOAEL (dog [6]; [16]): > 150 mg/kg/day; NOAEL (dog [6]; [16]): ≥ 150 mg/kg/day

Reference: EPA's ToxRefDB 2
